Results published in patent US20160109430A1, “METHODS FOR DRUG DISCOVERY” (Memorial Sloan-Kettering Cancer Center, priority 2014, published 2016).

Experiments:
Format in all cases: cell-based
[1] = tested on: LS8817 cells; assay: Senescence-associated β-galactosidase / senescence analysis in LS8817 cells; conditions: for accumulation of SA-β-gal staining: 100 μM doxorubicin for five days
[2] = tested on: LS8817 cells; assay: ATRX foci per cell by immunofluorescence in LS8817 cells
Protocol: (§1) Cells were washed twice with PBS and fixed with 4% paraformaldehyde at room temperature for 20 minutes. Cells were again washed twice with PBS and treated with 0.5% triton X-100 in PBS. Cells were again washed twice with PBS and blocked in 5% BSA in PBS for 30 minutes at room temperature. Cells were incubated with anti-ATRX antibody, obtained from Bethyl, Cat No. A301-045A, diluted at 1:2000 in PBS (stock is provided at 1 mg/ml) overnight at 4 degrees Celsius. The following day, cells were washed twice with PBS and incubated with Alexa Fluor-488 anti-rabbit secondary diluted at 1:500 in PBS (stock was provided at 2 mg/ml) for one hour at room temperature. Cells were washed twice with PBS and incubated with 0.1 μg/ml DAPI for 5 minutes at room temperature. Cells were washed three times with PBS and slides were mounted in Vectashield fluorescence mounting media. Slides were imaged using a Zeiss Axioplan 2 Upright Microscope.

[3] = tested on: U2OS cells; assay: Senescence analysis (SA-β-gal) in U2OS cells
Protocol: (§2) Cells were plated at a concentration of 25,000 per well in a 4-well chamber slides (Lab-Tek) and treated for seven days with drug and stained for senescence-associated β-galactosidase (Cell Signaling kit #9860). Cell number was quantitated by DAPI staining and β-galactosidase staining quantitated as a proportion of total cells.

[4] = tested on: LS8107 cells; assay: ATRX foci per cell by immunofluorescence in LS8107 cells; conditions: PD0332991 followed by shMDM2, compared to untreated or PD0332991 alone
Protocol: as §1

[5] = tested on: LS8107 cells; assay: Senescence analysis (SA-β-gal) in LS8107 cells
Protocol: as §2

Row | SMILES | cell state (quiescent or senescent) ([1]; LS8817 cells, 1 μM or 0.1 μM) | average number of ATRX foci per cell ([2]; LS8817 cells, PD0332991 1 μM or 0.1 μM) | number of ATRX foci per cell ([2]; LS8817 cells, PD0332991 in the presence of exogenous MDM2 (tet-on-MDM2-Flag, doxycycline), compared to PD0332991 alone) | cell state (quiescent or senescent) on CDK4 inhibition, by SA-β-gal ([3]; U2OS cells expressing exogenous ATRX) | cell state (quiescent or senescent) on CDK4 inhibition ([3]; U2OS cells that do not express endogenous ATRX) | number of ATRX foci per cell [4] | cell state (quiescent or senescent) ([5]; CDK4 inhibitor alone) | accumulation of SA-β-gal ([5]; PD0332991 followed by shMDM2) | accumulation of SA-β-gal staining ([1]; LS8817 cells expressing shATRX) | accumulation of SA-β-gal staining ([1]; LS8817 cells expressing shSCR) | ATRX foci in cells expressing shATRX ([2]; LS8817 cells expressing shATRX, 100 μM doxorubicin for five days) | average number of ATRX foci per cell ([2]; LS8817 cells, 100 μM doxorubicin for five days, control cells about 8)
1 | CC(=O)c1c(C)c2cnc(Nc3ccc(N4CCNCC4)cn3)nc2n(C2CCCC2)c1=O [PD0332991] | enter a senescent state | significant increase | prevented an increase | entering a senescent state | entering a quiescent state versus a senescent state | significant increase | entered a quiescent state | accumulation of SA-β-gal | – | – | – | –
2 | COc1cccc2c1C(=O)c1c(O)c3c(c(O)c1C2=O)C[C@@](O)(C(=O)CO)C[C@@H]3O[C@H]1C[C@H](N)[C@H](O)[C@H](C)O1 [doxorubicin] | – | – | – | – | – | – | – | – | did not significantly accumulate | significantly accumulated | not observed | about 35
